Measured values: patent US7186755B2 (Helsinn Health Care S.A., priority 1997, dated 2007)
Where two headings read alike, the source gives them in different places.

Experiments:
[1] = rats, 14C nimesulide
[2] = human volunteers, 14C nimesulide

CS(=O)(=O)Nc1ccc([N+](=O)[O-])cc1Oc1ccccc1 [Nimesulide]
Systemic concentrations of nimesulide after dermal application [1]: no significant systemic concentrations
Systemic concentrations of nimesulide after dermal application [2]: no significant systemic concentrations
